Results reported in patent US8809342B2, “Glucagon receptor modulators” (Pfizer Inc., priority 2010, dated 2014).

Target: T1, human glucagon receptor (Homo sapiens, UniProt P47871)
T1 construct: expressed in transfected cells; host or cells: CHO-K1 cells, stably transfected
Test: Glucagon cAMP assay (Cisbio cAMP detection)
Type: cell-based
Description: The Cisbio cAMP detection assay is used to determine the ability of punitive glucagon antagonist to block glucagon induced cAMP production. Potential glucagon antagonists are re-suspended and diluted in 100% DMSO. Prior to use in the Glucagon cAMP assay 100×DMSO compound stocks are diluted 20× with DMEM-F12 media (Invitrogen) containing either 0.1% or 4% BSA. 2 uls of 5× compound stocks are spotted into the appropriate wells of low binding white solid bottom 384 well plates (Corning). 2 uls of 5% DMSO or known glucagon antagonist are added to each plate to define the assay window. CHOK1 cells stably transfected with the human glucagon receptor are removed from culture flasks with cell dissociation buffer. Cell pellets are re-suspended, at a concentration of 8.3e^5 cells/ml in DMEM-F12 with or without 4% BSA and 200 uM IBMX. 6 uls of cell suspensions are added to the assay plates. Plates are incubated for 20 min at room temperature prior to the addition of a 100 pM challenge dose of glucagon. On a separate plate glucagon dose response curves are run to determine the EC50 of glucagon. After a 30 min room temperature incubation the reaction is terminated by the addition of lysis buffer containing the cAMP detection reagents. Plates are incubated for an additional 60 min at room temperature prior to being read on the Perkin Elmer fluorescent plate reader. Raw is converted to nM of cAMP produced based on a cAMP standard curve. Converted data is then analyzed using the Pfizer data analysis program. IC50 values are determined from the generated sigmoidal dose response curves. Kb values are the calculated using a modified Cheng-Prusoff equation.

T1 sequence (P47871 26-477): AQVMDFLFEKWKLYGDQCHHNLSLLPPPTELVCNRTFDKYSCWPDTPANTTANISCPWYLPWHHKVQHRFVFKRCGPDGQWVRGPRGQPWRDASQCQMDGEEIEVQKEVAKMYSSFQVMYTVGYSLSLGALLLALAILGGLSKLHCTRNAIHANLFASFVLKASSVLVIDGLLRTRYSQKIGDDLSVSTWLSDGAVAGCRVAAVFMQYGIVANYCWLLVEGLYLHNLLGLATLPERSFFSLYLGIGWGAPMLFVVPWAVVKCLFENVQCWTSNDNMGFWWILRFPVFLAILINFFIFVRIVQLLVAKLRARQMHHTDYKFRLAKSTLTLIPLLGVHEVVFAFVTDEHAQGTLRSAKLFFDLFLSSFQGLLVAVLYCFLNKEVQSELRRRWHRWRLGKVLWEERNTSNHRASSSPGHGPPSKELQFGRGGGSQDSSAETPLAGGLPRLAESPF

Row | Structure (SMILES) | Kb
1 | CC(C)CC(Nc1ccc(C(=O)NCCC(=O)O)cn1)c1ccc(-c2ccccc2F)cc1 (racemic) [Example 1.38, (+/−)-3-(6-(1-(2′-fluorobiphenyl-4-yl)-3-methylbutylamino)nicotinamido)propanoic acid] | 0.6 µM
2 | CC(C)CC(Nc1ccc(C(=O)NCCC(=O)O)cn1)c1ccc(-c2cccc(Cl)c2)cc1 (racemic) [Example 1.39, (+/−)-3-(6-(1-(3′-chlorobiphenyl-4-yl)-3-methylbutylamino)nicotinamido)propanoic acid] | 0.11 µM
3 | CC(C)CC(Nc1ccc(C(=O)NCCC(=O)O)cn1)c1ccc(-c2cccnc2)cc1 (racemic) [Example 1.40, (+/−)-3-(6-(3-methyl-1-(4-(pyridin-3-yl)phenyl)butylamino)nicotinamido)propanoic acid] | 4.6 µM
4 | CC(C)CC(Nc1ccc(C(=O)NCCC(=O)O)cn1)c1ccc(-c2cccc(F)c2)cc1 (racemic) [Example 1.41, (+/−)-3-(6-(1-(3′-fluorobiphenyl-4-yl)-3-methylbutylamino)nicotinamido)propanoic acid] | 0.45 µM
5 | Cc1ccccc1-c1ccc(C(CC(C)C)Nc2ccc(C(=O)NCCC(=O)O)cn2)cc1 (racemic) [Example 1.42, (+/−)-3-(6-(3-methyl-1-(2′-methylbiphenyl-4-yl)butylamino)nicotinamido)propanoic acid] | 0.78 µM
6 | COc1ccccc1-c1ccc(C(CC(C)C)Nc2ccc(C(=O)NCCC(=O)O)cn2)cc1 (racemic) [Example 1.43, (+/−)-3-(6-(1-(2′-methoxybiphenyl-4-yl)-3-methylbutylamino)nicotinamido)propanoic acid] | 0.19 µM
7 | CC(C)CC(Nc1ccc(C(=O)NCCC(=O)O)cn1)c1ccc(-c2ccccc2Cl)cc1 (racemic) [Example 1.44, (+/−)-3-(6-(1-(2′-chlorobiphenyl-4-yl)-3-methylbutylamino)nicotinamido)propanoic acid] | 0.58 µM
8 | CC(C)CC(Nc1ccc(C(=O)NCCC(=O)O)cn1)c1ccc(-c2ccc(C#N)cc2)cc1 (racemic) [Example 1.45, (+/−)-3-(6-(1-(4′-cyanobiphenyl-4-yl)-3-methylbutylamino)nicotinamido)propanoic acid] | 0.62 µM
9 | CCOc1ccc(-c2ccc(C(CC(C)C)Nc3ccc(C(=O)NCCC(=O)O)cn3)cc2)cc1 (racemic) [Example 1.46, (+/−)-3-(6-(1-(4′-ethoxybiphenyl-4-yl)-3-methylbutylamino)nicotinamido)propanoic acid] | 0.092 µM
10 | COc1cccc(-c2ccc(C(CC(C)C)Nc3ccc(C(=O)NCCC(=O)O)cn3)cc2)c1 (racemic) [Example 1.47, (+/−)-3-(6-(1-(3′-methoxybiphenyl-4-yl)-3-methylbutylamino)nicotinamido)propanoic acid] | 0.18 µM
11 | Cc1cccc(C)c1-c1ccc(C(CC(C)C)Nc2ccc(C(=O)NCCC(=O)O)cn2)cc1 (racemic) [Example 1.48, (+/−)-3-(6-(1-(2′,6′-dimethylbiphenyl-4-yl)-3-methylbutylamino)nicotinamido)propanoic acid] | 1.2 µM
12 | Cc1ccc(C)c(-c2ccc(C(CC(C)C)Nc3ccc(C(=O)NCCC(=O)O)cn3)cc2)c1 (racemic) [Example 1.49, (+/−)-3-(6-(1-(2′,5′-dimethylbiphenyl-4-yl)-3-methylbutylamino)nicotinamido)propanoic acid] | 0.75 µM
13 | Cc1ccc(-c2ccc(C(CC(C)C)Nc3ccc(C(=O)NCCC(=O)O)cn3)cc2)cc1 (racemic) [Example 1.50, (+/−)-3-(6-(3-methyl-1-(4′-methylbiphenyl-4-yl)butylamino)nicotinamido)propanoic acid] | 0.07 µM
14 | CC(C)CC(Nc1ccc(C(=O)NCCC(=O)O)cn1)c1ccc(-c2ccc(F)cc2)cc1 (racemic) [Example 1.51, (+/−)-3-(6-(1-(4′-fluorobiphenyl-4-yl)-3-methylbutylamino)nicotinamido)propanoic acid] | 0.16 µM
15 | COc1ccc(-c2ccc(C(CC(C)C)Nc3ccc(C(=O)NCCC(=O)O)cn3)cc2)cc1 (racemic) [Example 1.52, (+/−)-3-(6-(1-(4′-methoxybiphenyl-4-yl)-3-methylbutylamino)nicotinamido)propanoic acid] | 0.12 µM
16 | CC(C)CC(Nc1ccc(C(=O)NCCC(=O)O)cn1)c1ccc(-c2ccc(Cl)cc2)cc1 (racemic) [Example 1.53, (+/−)-3-(6-(1-(4′-chlorobiphenyl-4-yl)-3-methylbutylamino)nicotinamido)propanoic acid] | 0.046 µM

Row | Structure (SMILES) | Kb
17 | CCc1ccc(-c2ccc(C(CC(C)C)Nc3ccc(C(=O)NCCC(=O)O)cn3)cc2)cc1 (racemic) [Example 1.54, (+/−)-3-(6-(1-(4′-ethylbiphenyl-4-yl)-3-methylbutylamino)nicotinamido)propanoic acid] | 0.23 µM
18 | CC(C)CC(Nc1ccc(C(=O)NCCC(=O)O)cn1)c1ccc(-c2ccccn2)cc1 (racemic) [Example 1.55, (+/−)-3-(6-(3-methyl-1-(4-(68yridine-2-yl)phenyl)butylamino)nicotinamido)propanoic acid] | 4.8 µM
19 | CC(C)CC(Nc1ccc(C(=O)NCCC(=O)O)cn1)c1ccc(-c2ccc(C(=O)N(C)C)cc2)cc1 (racemic) [Example 1.56, (+/−)-3-(6-(1-(4′-(dimethylcarbamoyl)biphenyl-4-yl)-3-methylbutylamino)nicotinamido)propanoic acid] | 5 µM
20 | CC(C)CC(Nc1ccc(C(=O)NCCC(=O)O)cn1)c1ccc(-c2ccc(C(C)C)cc2)cc1 (racemic) [Example 1.57, (+/−)-3-(6-(1-(4′-isopropylbiphenyl-4-yl)-3-methylbutylamino)nicotinamido)propanoic acid] | 0.12 µM
21 | CC(C)CC(Nc1ccc(C(=O)NCCC(=O)O)cn1)c1ccc(-c2ccc(OC(F)(F)F)cc2)cc1 (racemic) [Example 1.58, (+/−)-3-(6-(3-methyl-1-(4′-(trifluoromethoxy)biphenyl-4-yl)butylamino)nicotinamido)propanoic acid] | 0.12 µM
22 | CC(C)CC(Nc1ccc(C(=O)NCCC(=O)O)cn1)c1ccc(-c2ccc(S(C)(=O)=O)cc2)cc1 (racemic) [Example 1.59, (+/−)-3-(6-(3-methyl-1-(4′-(methylsulfonyl)biphenyl-4-yl)butylamino)nicotinamido)propanoic acid] | 1.5 µM
23 | CC(C)CC(Nc1ccc(C(=O)NCCC(=O)O)cn1)c1ccc(-c2ccc(C(F)(F)F)nc2)cc1 (racemic) [Example 1.60, (+/−)-3-(6-(3-methyl-1-(4-(6-(trifluoromethyl)pyridin-3-yl)phenyl)butylamino)nicotinamido)propanoic acid] | 0.28 µM
24 | Cc1cc(NC(CC(C)C)c2ccc(C(=O)NCCC(=O)O)cn2)cc(C)c1-c1ccc(C(F)(F)F)cc1 (racemic) [Example 2.1, (+/−)-3-(6-(1-(2,6-dimethyl-4′-(trifluoromethyl)biphenyl-4-ylamino)-3-methylbutyl)nicotinamido)propanoic acid] | 0.038 µM
25 | CC(C)CC(Nc1ccc(-c2ccc(C(F)(F)F)cc2)cc1)c1ccc(C(=O)NCCC(=O)O)cn1 (racemic) [Example 2.4, (+/−)-3-(6-(3-methyl-1-(4′-(trifluoromethyl)biphenyl-4-ylamino)butyl)nicotinamido)propanoic acid] | 0.3 µM
26 | CC(C)CC(Nc1ccc(-c2ccc(C(F)(F)F)cc2)nc1)c1ccc(C(=O)NCCC(=O)O)cn1 (racemic) [Example 2.7, (+/−)-3-(6-(3-methyl-1-(6-(4-(trifluoromethyl)phenyl)pyridin-3-ylamino)butyl)nicotinamido)propanoic acid] | 0.28 µM
27 | Cc1cc(NC(CC(C)C)c2ccc(C(=O)NCCC(=O)O)cn2)cnc1-c1ccc(C(F)(F)F)cc1 (racemic) [Example 2.8, (+/−)-3-(6-(3-methyl-1-(5-methyl-6-(4-(trifluoromethyl)phenyl)pyridin-3-ylamino)butyl)nicotinamido)propanoic acid] | 0.13 µM
28 | CCCC(Nc1cnc(-c2ccc(C(F)(F)F)cc2)c(C)c1)c1ccc(C(=O)NCCC(=O)O)cn1 (racemic) [Example 2.9, (+/−)-3-(6-(1-(5-methyl-6-(4-(trifluoromethyl)phenyl)pyridin-3-ylamino)butyl)nicotinamido)propanoic acid] | 0.82 µM
29 | CC(Nc1ccc(-c2ccc(C(F)(F)F)cc2)cc1)c1ccc(C(=O)NCCC(=O)O)cn1 (racemic) [Example 2.10, (+/−)-3-(6-(1-(4′-(trifluoromethyl)biphenyl-4-ylamino)ethyl)nicotinamido)propanoic acid] | 1.7 µM
30 | CCC(Nc1cnc(-c2ccc(C(F)(F)F)cc2)c(C)c1)c1ccc(C(=O)NCCC(=O)O)cn1 (racemic) [Example 2.11, (+/−)-3-(6-(1-(5-methyl-6-(4-(trifluoromethyl)phenyl)pyridin-3-ylamino)propyl)nicotinamido)propanoic acid] | 1.8 µM
31 | CC(C)CC(Nc1ccc(-c2ccc(C(F)(F)F)cc2)cc1)c1ccc(C(=O)NCc2nnn[nH]2)cn1 (racemic) [Example 2.12, (+/−)-N-((1H-tetrazol-5-yl)methyl)-6-(3-methyl-1-(4′-(trifluoromethyl)biphenyl-4-ylamino)butyl)nicotinamide] | 0.73 µM
